{"source": "patent US20240261249A1", "about": "“NOVEL SQUARAMIDE DERIVATIVE AND USE THEREOF” (PUSAN NATIONAL UNIVERSITY INDUSTRY-UNIVERSITY COOPERATION …, priority 2021, published 2024)", "data": [{"tested_on": "K562 cell line", "assay": "CCK-8 anti-proliferative assay, K562", "format": "cell-based", "details": "Homo sapiens, 72 h; K562, culture for 3 days, CCK-8, Table 2; read-out: IC50", "protocol": "CCK-8 assay (cell counting kit-8 assay, Dojindo, Kumamoto, Japan) was performed. The K562 cell line was cultured in RPMI medium supplemented with 10% FBS and 1% ABAM at 37° C. in the presence of 5% CO2. Cells were treated with test compounds at concentrations of 0 μM, 1.25 μM, 2.5 μM, 5 μM, 10 μM, and 20 μM, respectively. After culture for 3 days, 10 μL of CCK-8 solution was treated and cultured for 4 hours. Subsequently, the absorbance was measured at 450 nm to obtain the IC50 value of each compound.\nThe experimental values for the K562 cell line are identical to biological Example 2.", "units": {"IC50": "µM"}, "values": [{"smiles": "COc1cccc(Nc2c(N[C@H]3CC[C@H](Oc4ccc([N+](=O)[O-])cc4)CC3)c(=O)c2=O)c1", "note": "[Compound 35, 3-((3-Methoxyphenyl)amino)-4-(((1,4-trans)-4-(4-nitrophenoxy)cyclohexyl)amino)cyclobut-3-ene-1,2-dione]", "IC50": "> 20"}, {"smiles": "N#Cc1ccc(O[C@H]2CC[C@H](Nc3c(Nc4ccccc4C(F)(F)F)c(=O)c3=O)CC2)cc1", "note": "[Compound 71, 4-(((1,4-trans)-4-((3,4-Dioxo-2-((2-(trifluoromethyl)phenyl)amino)cyclobut-1-en-1-yl)amino)cyclohexyl)oxy)benzonitrile]", "IC50": "> 20"}]}, {"tested_on": "Phospho-eIF2α (Ser51)", "assay": "Phospho-eIF2α (Ser51) Sandwich ELISA in K562 cells", "format": "cell-based", "details": "Homo sapiens, K562, 6 h, serum-free RPMI, 10 μM compound, control = 1, read-out: eIF2α phosphorylation, absorbance standardized to control (DMSO-treated) set to 1, at 10 μM", "protocol": "(§1) Pathscan Phospho-eIF2α (Ser51) Sandwich ELISA Kit #7286 from Cell signaling was used. The K562 cell line was cultured in serum-free RPMI medium at 37° C. in the presence of 5% CO2. Cells were treated with test compounds at a concentration of 10 μM. Six hours after compound treatment, the cells were lysed with a lysis buffer included in the kit to obtain 50 μg of protein by quantification. Afterwards, ELISA assay was performed according to the manufacturer's protocol to obtain absorbance. The absorbance for each obtained compound was standardized to a value of which the control (DMSO-treated) is set to 1.", "units": {"activity at 10 µM": "%"}, "values": [{"smiles": "COc1cccc(Nc2c(N[C@H]3CC[C@H](Oc4ccc([N+](=O)[O-])cc4)CC3)c(=O)c2=O)c1", "note": "[Compound 35, 3-((3-Methoxyphenyl)amino)-4-(((1,4-trans)-4-(4-nitrophenoxy)cyclohexyl)amino)cyclobut-3-ene-1,2-dione]", "activity at 10 µM": 105}, {"smiles": "N#Cc1ccc(O[C@H]2CC[C@H](Nc3c(Nc4ccccc4C(F)(F)F)c(=O)c3=O)CC2)cc1", "note": "[Compound 71, 4-(((1,4-trans)-4-((3,4-Dioxo-2-((2-(trifluoromethyl)phenyl)amino)cyclobut-1-en-1-yl)amino)cyclohexyl)oxy)benzonitrile]", "activity at 10 µM": 180}, {"smiles": "O=c1c(Nc2ccccc2Cl)c(N[C@H]2CC[C@H](Oc3ccc([N+](=O)[O-])cc3)CC2)c1=O", "note": "[Compound 68, 3-((2-Chlorophenyl)amino)-4-(((1,4-trans)-4-(4-nitrophenoxy)cyclohexyl)amino)cyclobut-3-ene-1,2-dione]", "activity at 10 µM": 209}, {"smiles": "O=c1c(Nc2ccccc2)c(N[C@H]2CC[C@H](Oc3ccc([N+](=O)[O-])cc3)CC2)c1=O", "note": "[Compound 10, 3-(((1,4-trans)-4-(4-Nitrophenoxy)cyclohexyl)amino)-4-(phenylamino)cyclobut-3-ene-1,2-dione]", "activity at 10 µM": 84}, {"smiles": "COc1cccc(Nc2c(N[C@H]3CC[C@H](Oc4ccc(C#N)cc4)CC3)c(=O)c2=O)c1", "note": "[Compound 34, 4-(((1,4-trans)-4-((2-((3-Methoxyphenyl)amino)-3,4-dioxocyclobut-1-en-1-yl)amino)cyclohexyl)oxy)benzonitrile]", "activity at 10 µM": 83}, {"smiles": "COC(=O)c1ccc(Nc2c(N[C@H]3CC[C@H](Oc4ccc(C#N)cc4)CC3)c(=O)c2=O)cc1", "note": "[Compound 59, Methyl 4-((2-(((1,4-trans)-4-(4-cyanophenoxy)cyclohexyl)amino)-3,4-dioxocyclobut-1-en-1-yl)amino)benzoate]", "activity at 10 µM": 83}, {"smiles": "CS(=O)(=O)c1ccc(O[C@H]2CC[C@H](Nc3c(Nc4ccccc4Cl)c(=O)c3=O)CC2)cc1", "note": "[Compound 69, 3-((2-Chlorophenyl)amino)-4-(((1,4-trans)-4-(4-(methylsulfonyl)phenoxy)cyclohexyl)amino)cyclobut-3-ene-1,2-dione]", "activity at 10 µM": 101}, {"smiles": "COc1ccc(Nc2c(N[C@H]3CC[C@H](Oc4ccc(S(C)(=O)=O)cc4)CC3)c(=O)c2=O)cc1", "note": "[Compound 57, 3-((4-Methoxyphenyl)amino)-4-(((1,4-trans)-4-(4-(methylsulfonyl)phenoxy)cyclohexyl)amino)cyclobut-3-ene-1,2-dione]", "activity at 10 µM": 211}, {"smiles": "COC(=O)c1ccc(Nc2c(N[C@H]3CC[C@H](Oc4ccc(C(F)(F)F)cc4)CC3)c(=O)c2=O)cc1", "note": "[Compound 58, Methyl 4-((3,4-dioxo-2-(((1,4-trans)-4-(4-(trifluoromethyl)phenoxy)cyclohexyl)amino)cyclobut-1-en-1-yl)amino)benzoate]", "activity at 10 µM": 97}, {"smiles": "NS(=O)(=O)c1ccc(O[C@H]2CC[C@H](Nc3c(Nc4cccc(F)c4)c(=O)c3=O)CC2)cc1", "note": "[Compound 17, 4-(((1,4-trans)-4-((2-((3-Fluorophenyl)amino)-3,4-dioxocyclobut-1-en-1-yl)amino)cyclohexyl)oxy)benzenesulfonamide]", "activity at 10 µM": 86}, {"smiles": "COc1cccc(Nc2c(N[C@H]3CC[C@H](Oc4ccc(S(N)(=O)=O)cc4)CC3)c(=O)c2=O)c1", "note": "[Compound 37, 4-(((1,4-trans)-4-((2-((3-Methoxyphenyl)amino)-3,4-dioxocyclobut-1-en-1-yl)amino)cyclohexyl)oxy)benzenesulfonamide]", "activity at 10 µM": 67}, {"smiles": "N#Cc1ccc(O[C@H]2CC[C@H](Nc3c(Nc4ccc(C(F)(F)F)cc4)c(=O)c3=O)CC2)cc1", "note": "[Compound 47, 4-(((1,4-trans)-4-((3,4-Dioxo-2-((4-(trifluoromethyl)phenyl)amino)cyclobut-1-en-1-yl)amino)cyclohexyl)oxy)benzonitrile]", "activity at 10 µM": 51}, {"smiles": "N#Cc1ccc(O[C@H]2CC[C@H](Nc3c(Nc4ccc(Cl)cc4)c(=O)c3=O)CC2)cc1", "note": "[Compound 43, 4-(((1,4-trans)-4-((2-((4-Chlorophenyl)amino)-3,4-dioxocyclobut-1-en-1-yl)amino)cyclohexyl)oxy)benzonitrile]", "activity at 10 µM": 87}, {"smiles": "CS(=O)(=O)c1ccc(O[C@H]2CC[C@H](Nc3c(Nc4cccc(F)c4)c(=O)c3=O)CC2)cc1", "note": "[Compound 16, 3-((3-Fluorophenyl)amino)-4-(((1,4-trans)-4-(4-(methylsulfonyl)phenoxy)cyclohexyl)amino)cyclobut-3-ene-1,2-dione]", "activity at 10 µM": 84}, {"smiles": "CC(C)(C)c1ccc(Nc2c(N[C@H]3CC[C@H](Oc4ccc([N+](=O)[O-])cc4)CC3)c(=O)c2=O)cc1", "note": "[Compound 52, 3-((4-(tert-Butyl)phenyl)amino)-4-(((1,4-trans)-4-(4-nitrophenoxy)cyclohexyl)amino)cyclobut-3-ene-1,2-dione]", "activity at 10 µM": 77}, {"smiles": "N#Cc1ccc(O[C@H]2CC[C@H](Nc3c(Nc4ccc(F)cc4)c(=O)c3=O)CC2)cc1", "note": "[Compound 39, 4-(((1,4-trans)-4-((2-((4-Fluorophenyl)amino)-3,4-dioxocyclobut-1-en-1-yl)amino)cyclohexyl)oxy)benzonitrile]", "activity at 10 µM": 83}, {"smiles": "N#Cc1ccc(O[C@H]2CC[C@H](Nc3c(Nc4ccccc4Cl)c(=O)c3=O)CC2)cc1", "note": "[Compound 67, 4-(((1,4-trans)-4-((2-((2-Chlorophenyl)amino)-3,4-dioxocyclobut-1-en-1-yl)amino)cyclohexyl)oxy)benzonitrile]", "activity at 10 µM": 199}, {"smiles": "COc1ccccc1Nc1c(N[C@H]2CC[C@H](Oc3ccc(C#N)cc3)CC2)c(=O)c1=O", "note": "[Compound 79, 4-(((1,4-trans)-4-((2-((2-Methoxyphenyl)amino)-3,4-dioxocyclobut-1-en-1-yl)amino)cyclohexyl)oxy)benzonitrile]", "activity at 10 µM": 238}, {"smiles": "CC(C)(C)c1ccccc1Nc1c(N[C@H]2CC[C@H](Oc3ccc(C#N)cc3)CC2)c(=O)c1=O", "note": "[Compound 75, 4-(((1,4-trans)-4-((2-((2-(tert-Butyl)phenyl)amino)-3,4-dioxocyclobut-1-en-1-yl)amino)cyclohexyl)oxy)benzonitrile]", "activity at 10 µM": 162}, {"smiles": "O=c1c(Nc2ccc(F)cc2)c(N[C@H]2CC[C@H](Oc3ccc([N+](=O)[O-])cc3)CC2)c1=O", "note": "[Compound 40, 3-((4-Fluorophenyl)amino)-4-(((1,4-trans)-4-(4-nitrophenoxy)cyclohexyl)amino)cyclobut-3-ene-1,2-dione]", "activity at 10 µM": 82}, {"smiles": "COc1cccc(Nc2c(N[C@H]3CC[C@H](Oc4ccc(S(C)(=O)=O)cc4)CC3)c(=O)c2=O)c1", "note": "[Compound 36, 3-((3-Methoxyphenyl)amino)-4-(((1,4-trans)-4-(4-(methylsulfonyl)phenoxy)cyclohexyl)amino)cyclobut-3-ene-1,2-dione]", "activity at 10 µM": 60}, {"smiles": "N#Cc1ccc(O[C@H]2CC[C@H](Nc3c(Nc4ccccc4)c(=O)c3=O)CC2)cc1", "note": "[Compound 9, 4-(((1,4-trans)-4-((3,4-Dioxo-2-(phenylamino)cyclobut-1-en-1-yl)amino)cyclohexyl)oxy)benzonitrile]", "activity at 10 µM": 88}, {"smiles": "COc1ccc(Nc2c(N[C@H]3CC[C@H](Oc4ccc(C#N)cc4)CC3)c(=O)c2=O)cc1", "note": "[Compound 55, 4-(((1,4-trans)-4-((2-((4-Methoxyphenyl)amino)-3,4-dioxocyclobut-1-en-1-yl)amino)cyclohexyl)oxy)benzonitrile]", "activity at 10 µM": 84}, {"smiles": "O=c1c(Nc2ccc(Cl)cc2)c(N[C@H]2CC[C@H](Oc3ccc([N+](=O)[O-])cc3)CC2)c1=O", "note": "[Compound 44, 3-((4-Chlorophenyl)amino)-4-(((1,4-trans)-4-(4-nitrophenoxy)cyclohexyl)amino)cyclobut-3-ene-1,2-dione]", "activity at 10 µM": 147}, {"smiles": "COc1ccc(Nc2c(N[C@H]3CC[C@H](Oc4ccc(C(F)(F)F)cc4)CC3)c(=O)c2=O)cc1", "note": "[Compound 54, 3-((4-Methoxyphenyl)amino)-4-(((1,4-trans)-4-(4-(trifluoromethyl)phenoxy)cyclohexyl)amino)cyclobut-3-ene-1,2-dione]", "activity at 10 µM": 182}, {"smiles": "CS(=O)(=O)c1ccc(O[C@H]2CC[C@H](Nc3c(Nc4ccc(F)cc4)c(=O)c3=O)CC2)cc1", "note": "[Compound 41, 3-((4-Fluorophenyl)amino)-4-(((1,4-trans)-4-(4-(methylsulfonyl)phenoxy)cyclohexyl)amino)cyclobut-3-ene-1,2-dione]", "activity at 10 µM": 62}, {"smiles": "CS(=O)(=O)c1ccc(O[C@H]2CC[C@H](Nc3c(Nc4ccccc4C(F)(F)F)c(=O)c3=O)CC2)cc1", "note": "[Compound 73, 3-(((1,4-trans)-4-(4-(Methylsulfonyl)phenoxy)cyclohexyl)amino)-4-((2-(trifluoromethyl)phenyl)amino)cyclobut-3-ene-1,2-dione]", "activity at 10 µM": 84}]}, {"tested_on": "Phospho-eIF2α (Ser51)", "assay": "Phospho-eIF2α (Ser51) Sandwich ELISA in K562 cells", "format": "cell-based", "details": "serum-free RPMI, 10 μM compound, 6 hours, control = 1", "protocol": "as §1", "values": [{"smiles": "CS(=O)(=O)c1ccc(O[C@H]2CC[C@H](Nc3c(Nc4ccccc4F)c(=O)c3=O)CC2)cc1", "note": "[Compound 65, 3-((2-Fluorophenyl)amino)-4-(((1,4-trans)-4-(4-(methylsulfonyl)phenoxy)cyclohexyl)amino)cyclobut-3-ene-1,2-dione]", "eIF2α phosphorylation, absorbance standardized to control (DMSO-treated) set to 1, at 10 μM": 1.07}]}]}
